# Source: US9802927B2, “Oxadiazine compounds and methods of use thereof” (Denali Therapeutics, Inc., priority 2015, dated 2017)
# System: Aβ42
# Test: In vitro cell screening assay in H4 cells expressing human APP751: Aβ42 by sandwich ELISA
# Type: cell-based
# Conditions: Homo sapiens, compounds 0.003-10 μM, incubated overnight (16-18 h), sandwich ELISA of supernatant
# How it was run: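 Secreted Aβ42 measured by sandwich ELISA, C-terminal-specific capture and 4G8-HRP detection, TMB read at 450 nm, from supernatants of APP751-expressing H4 cells exposed overnight (16-18 h) to 0.003-10 μM compound in Pro293 medium, 0.33% DMSO. Data scaled between DMSO and DAPT controls; EC50 from variable-slope nonlinear regression.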
row,EC50 [nM],Compound
1,38.7,"COc1cc(Cl)c2c(C3CON=C(c4ccc(-n5cnc(C)c5)c(OC)n4)N3)cn(C)c2c1 (single isomer, unassigned; (+)) [Example 261A, (+)-5-(4-chloro-6-methoxy-1-methyl-1H-indol-3-yl)-3-(6-methoxy-5-(4-methyl-1H-imidazol-1-yl)pyridin-2-yl)-5,6-dihydro-4H-1,2,4-oxadiazine]"

# Same assay, conditions: compounds 0.003-10 μM, incubated overnight (16-18 h), sandwich ELISA of supernatant
row,Compound,EC50 [nM]
1,"COc1nc(C2=NOCC(c3cn(C)c4cc(S(C)(=O)=O)ccc34)N2)ccc1-n1cnc(C)c1 (single isomer, unassigned; (+)) [Example 256B, (+)-3-(6-methoxy-5-(4-methyl-1H-imidazol-1-yl)pyridin-2-yl)-5-(1-methyl-6-(methylsulfonyl)-1H-indol-3-yl)-5,6-dihydro-4H-1,2,4-oxadiazine]",422
2,"COc1nc(C2=NOCC(c3ccc(C(F)(F)F)c(Cl)c3)N2)ccc1-n1cnc(C)c1 (single isomer, unassigned; (+)) [Example 262B, (+)-5-(3-chloro-4-(trifluoromethyl)phenyl)-3-(6-methoxy-5-(4-methyl-1H-imidazol-1-yl)pyridin-2-yl)-5,6-dihydro-4H-1,2,4-oxadiazine]",10
3,"COc1nc(C2=NOCC(c3cn(C)c4ncc(Cl)cc34)N2)ccc1-n1cnc(C)c1 (single isomer, unassigned; (+)) [Example 264B, (+)-5-(5-chloro-1-methyl-1H-pyrrolo[2,3-b]pyridin-3-yl)-3-(6-methoxy-5-(4-methyl-1H-imidazol-1-yl)pyridin-2-yl)-5,6-dihydro-4H-1,2,4-oxadiazine]",9.5
4,"COc1nc(C2=NOCC(c3ccc(C(C)(C)O)cc3)N2)ccc1-n1cnc(C)c1 (single isomer, unassigned; (+)) [Example 268B, (+)-2-(4-(3-(6-methoxy-5-(4-methyl-1H-imidazol-1-yl)pyridin-2-yl)-5,6-dihydro-4H-1,2,4-oxadiazin-5-yl)phenyl)propan-2-ol]",270
5,"COc1nc(C2=NOCC(c3cnc4ccc(Cl)cn34)N2)ccc1-n1cnc(C)c1 (single isomer, unassigned; (+)) [Example 269B, (+)-5-(6-chloroimidazo[1,2-a]pyridin-3-yl)-3-(6-methoxy-5-(4-methyl-1H-imidazol-1-yl)pyridin-2-yl)-5,6-dihydro-4H-1,2,4-oxadiazine]",240
6,"COc1nc(C2=NOCC(c3cc4ccc(F)cc4o3)N2)ccc1-n1cnc(C)c1 (single isomer, unassigned; (-)) [Example 52A, (−)-5-(6-fluorobenzofuran-2-yl)-3-(6-methoxy-5-(4-methyl-1H-imidazol-1-yl)pyridin-2-yl)-5,6-dihydro-4H-1,2,4-oxadiazine]",667
7,"COc1nc(C2=NOCC(C3CCCCC3)N2)ccc1-n1cnc(C)c1 (single isomer, unassigned; (-)) [Example 61A, (−)-5-cyclohexyl-3-(6-methoxy-5-(4-methyl-1H-imidazol-1-yl)pyridin-2-yl)-5,6-dihydro-4H-1,2,4-oxadiazine]",775
8,"COc1nc(C2=NOCC(c3cc4cccc(Cl)c4o3)N2)ccc1-n1cnc(C)c1 (single isomer, unassigned; (-)) [Example 64A, (−)-5-(7-chlorobenzofuran-2-yl)-3-(6-methoxy-5-(4-methyl-1H-imidazol-1-yl)pyridin-2-yl)-5,6-dihydro-4H-1,2,4-oxadiazine]",759
9,"COc1nc(C2=NOCC(c3sc4ccccc4c3C)N2)ccc1-n1cnc(C)c1 (single isomer, unassigned; (-)) [Example 66A, (−)-3-(6-methoxy-5-(4-methyl-1H-imidazol-1-yl)pyridin-2-yl)-5-(3-methylbenzo [b]thiophen-2-yl)-5,6-dihydro-4H-1,2,4-oxadiazine]",651
10,"COc1nc(C2=NOCC(c3csc4ccccc34)N2)ccc1-n1cnc(C)c1 (single isomer, unassigned; (-)) [Example 68A, (−)-5-(benzo [b]thiophen-3-yl)-3-(6-methoxy-5-(4-methyl-1H-imidazol-1-yl)pyridin-2-yl)-5,6-dihydro-4H-1,2,4-oxadiazine]",1090
11,"COc1nc(C2=NOCC(c3ccc(OC(F)(F)F)cc3)N2)ccc1-n1cnc(C)c1 (single isomer, unassigned; (-)) [Example 70A, (−)-3-(6-methoxy-5-(4-methyl-1H-imidazol-1-yl)pyridin-2-yl)-5-(4-(trifluoromethoxy)phenyl)-5,6-dihydro-4H-1,2,4-oxadiazine]",> 3000

# The remaining lines, values ahead:
row,EC50 [nM],Compound
1,12.9,"COc1nc(C2=NOCC(c3cn(C)c4cc(Cl)cc(OC)c34)N2)ccc1-n1cnc(C)c1 (single isomer, unassigned; (+)) [Example 254B, (+)-5-(6-chloro-4-methoxy-1-methyl-1H-indol-3-yl)-3-(6-methoxy-5-(4-methyl-1H-imidazol-1-yl)pyridin-2-yl)-5,6-dihydro-4H-1,2,4-oxadiazine]"
2,9,"COc1cc2c(cc1Cl)c(C1CON=C(c3ccc(-n4cnc(C)c4)c(OC)n3)N1)cn2C (single isomer, unassigned; (+)) [Example 255B, (+)-5-(5-chloro-6-methoxy-1-methyl-1H-indol-3-yl)-3-(6-methoxy-5-(4-methyl-1H-imidazol-1-yl)pyridin-2-yl)-5,6-dihydro-4H-1,2,4-oxadiazine]"
3,4.9,"COc1nc(C2=NOCC(c3cn(C)c4cc(F)c(C)cc34)N2)ccc1-n1cnc(C)c1 (single isomer, unassigned; (+)) [Example 257B, (+)-5-(6-fluoro-1,5-dimethyl-1H-indol-3-yl)-3-(6-methoxy-5-(4-methyl-1H-imidazol-1-yl)pyridin-2-yl)-5,6-dihydro-4H-1,2,4-oxadiazine]"
4,23.5,"COc1ccc2c(C3CON=C(c4ccc(-n5cnc(C)c5)c(OC)n4)N3)cn(C)c2c1 (single isomer, unassigned; (+)) [Example 258B, (+)-5-(6-methoxy-1-methyl-1H-indol-3-yl)-3-(6-methoxy-5-(4-methyl-1H-imidazol-1-yl)pyridin-2-yl)-5,6-dihydro-4H-1,2,4-oxadiazine]"
5,9,"COc1nc(C2=NOCC(c3cc4cc(C(F)(F)F)ccc4o3)N2)ccc1-n1cnc(C)c1 (single isomer, unassigned; (+)) [Example 259B, (+)-3-(6-methoxy-5-(4-methyl-1H-imidazol-1-yl)pyridin-2-yl)-5-(5-(trifluoromethyl)benzofuran-2-yl)-5,6-dihydro-4H-1,2,4-oxadiazine]"
6,4.8,"COc1nc(C2=NOCC(c3cc4ccc(C(F)(F)F)cc4o3)N2)ccc1-n1cnc(C)c1 (single isomer, unassigned; (+)) [Example 260B, (+)-3-(6-methoxy-5-(4-methyl-1H-imidazol-1-yl)pyridin-2-yl)-5-(6-(trifluoromethyl)benzofuran-2-yl)-5,6-dihydro-4H-1,2,4-oxadiazine]"
7,15.5,"COc1nc(C2=NOCC(c3cn(C)c4ncc(C5CC5)cc34)N2)ccc1-n1cnc(C)c1 (single isomer, unassigned; (+)) [Example 266B, (+)-5-(5-cyclopropyl-1-methyl-1H-pyrrolo[2,3-b]pyridin-3-yl)-3-(6-methoxy-5-(4-methyl-1H-imidazol-1-yl)pyridin-2-yl)-5,6-dihydro-4H-1,2,4-oxadiazine]"
8,24.9,"COc1nc(C2=NOCC(c3cc(F)c(Cl)c(F)c3)N2)ccc1-n1cnc(C)c1 (single isomer, unassigned; (+)) [Example 267B, (+)-5-(4-chloro-3,5-difluorophenyl)-3-(6-methoxy-5-(4-methyl-1H-imidazol-1-yl)pyridin-2-yl)-5,6-dihydro-4H-1,2,4-oxadiazine]"
9,21.4,"COc1nc(C2=NOCC(c3ccc(Cl)c(C(F)F)c3)N2)ccc1-n1cnc(C)c1 (single isomer, unassigned; (+)) [Example 270B, (+)-5-(4-chloro-3-(difluoromethyl)phenyl)-3-(6-methoxy-5-(4-methyl-1H-imidazol-1-yl)pyridin-2-yl)-5,6-dihydro-4H-1,2,4-oxadiazine]"
10,508,"COc1nc(C2=NOCC(c3oc4ccccc4c3C)N2)ccc1-n1cnc(C)c1 (single isomer, unassigned; (-)) [Example 16A, (−)-3-(6-methoxy-5-(4-methyl-1H-imidazol-1-yl)pyridin-2-yl)-5-(3-methylbenzofuran-2-yl)-5,6-dihydro-4H-1,2,4-oxadiazine]"
11,> 3000,"COc1nc(C2=NOCC(c3cc4ccccc4o3)N2)ccc1-n1cnc(C)n1 (single isomer, unassigned; (-)) [Example 31A, (−)-5-(Benzofuran-2-yl)-3-(6-methoxy-5-(3-methyl-1H-1,2,4-triazol-1-yl)pyridin-2-yl)-5,6-dihydro-4H-1,2,4-oxadiazine]"
12,> 3000,"COc1nc(C2=NOCC(c3ccc(Cl)c(Cl)c3)N2)ccc1-n1cnc(C)c1 (single isomer, unassigned; (-)) [Example 49A, (−)-5-(3,4-dichlorophenyl)-3-(6-methoxy-5-(4-methyl-1H-imidazol-1-yl)pyridin-2-yl)-5,6-dihydro-4H-1,2,4-oxadiazine]"
13,> 3000,"COc1ccc(C2CON=C(c3ccc(-n4cnc(C)c4)c(OC)n3)N2)cc1 (single isomer, unassigned; (-)) [Example 54A, (−)-3-(6-methoxy-5-(4-methyl-1H-imidazol-1-yl)pyridin-2-yl)-5-(4-methoxyphenyl)-5,6-dihydro-4H-1,2,4-oxadiazine]"
14,2280,"COc1nc(C2=NOCC(c3cc4cc(Cl)ccc4o3)N2)ccc1-n1cnc(C)c1 (single isomer, unassigned; (-)) [Example 57A, (−)-5-(5-chlorobenzofuran-2-yl)-3-(6-methoxy-5-(4-methyl-1H-imidazol-1-yl)pyridin-2-yl)-5,6-dihydro-4H-1,2,4-oxadiazine]"
15,> 3000,"COc1nc(C2=NOCC(c3ccc(C(F)(F)F)cc3)N2)ccc1-n1cnc(C)c1 (single isomer, unassigned; (-)) [Example 59A, (−)-3-(6-methoxy-5-(4-methyl-1H-imidazol-1-yl)pyridin-2-yl)-5-(4-(trifluoromethyl)phenyl)-5,6-dihydro-4H-1,2,4-oxadiazine]"
